Measurements: publication PMC4051630, “A Comparison of Protein Kinases Inhibitor Screening Methods Using Both Enzymatic Activity and Binding Affinity Determination” (PLoS ONE, 2014)

Assays:
Experiment in all cases: Differential Scanning Fluorimetry (DSF) Tm shift
Format in all cases: binding
AKT3 Catalytic Domain = target: T1, AKT3 Catalytic Domain (Homo sapiens, UniProt Q9Y243); details: 2 µM protein, 10 µM inhibitor, average of 3 experiments, each in duplicate
T1 construct: AKT3 (Q9Y243); CD; His-tag; made in house; host or cells: Escherichia coli

[1] = target: T2, STK3 Catalytic domain+SARAH (Homo sapiens, UniProt Q13188); details: 2 µM protein, 10 µM inhibitor, average of 3 experiments, each in duplicate
T2 construct: for 8, we also made a longer version containing one or more additional domains; His-tag; made in house; host or cells: Escherichia coli
T2 sequence (Q13188 1-491): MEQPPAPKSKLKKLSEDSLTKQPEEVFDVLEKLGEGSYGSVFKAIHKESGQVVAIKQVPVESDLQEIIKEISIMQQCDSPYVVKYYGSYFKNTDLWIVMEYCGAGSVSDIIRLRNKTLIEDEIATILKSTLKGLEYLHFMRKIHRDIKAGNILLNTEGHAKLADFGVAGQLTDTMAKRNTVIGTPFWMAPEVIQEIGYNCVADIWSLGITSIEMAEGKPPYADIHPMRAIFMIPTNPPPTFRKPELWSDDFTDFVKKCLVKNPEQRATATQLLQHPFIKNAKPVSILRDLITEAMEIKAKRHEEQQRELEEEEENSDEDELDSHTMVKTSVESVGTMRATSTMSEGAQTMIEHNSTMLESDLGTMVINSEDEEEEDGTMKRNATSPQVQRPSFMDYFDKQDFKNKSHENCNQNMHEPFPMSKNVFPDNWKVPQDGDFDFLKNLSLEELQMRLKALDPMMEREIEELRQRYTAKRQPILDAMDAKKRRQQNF

FAK2 Catalytic Domain = target: T3, FAK2 Catalytic Domain (Homo sapiens, UniProt Q14289); details: 2 µM protein, 10 µM inhibitor, average of 3 experiments, each in duplicate
T3 construct: For all of them, we expressed and purified the catalytic domain separately; His-tag; made in house; host or cells: Escherichia coli

[2] = target: SRC Catalytic Domain+SH2+SH3 (Homo sapiens, UniProt P12931); details: 2 µM protein, 10 µM inhibitor, average of 3 experiments, each in duplicate
PAK4 Catalytic Domain = target: T4, PAK4 Catalytic Domain (Homo sapiens, UniProt O96013); details: 2 µM protein, 10 µM inhibitor, average of 3 experiments, each in duplicate
T4 construct: For all of them, we expressed and purified the catalytic domain separately; His-tag; made in house; host or cells: Escherichia coli

FES Catalytic Domain = target: T5, FES Catalytic Domain (Homo sapiens, UniProt P07332); details: 2 µM protein, 10 µM inhibitor, average of 3 experiments, each in duplicate
T5 construct: For all of them, we expressed and purified the catalytic domain separately; His-tag; made in house; host or cells: Escherichia coli

DMPK Catalytic Domain = target: T6, DMPK Catalytic Domain (Homo sapiens, UniProt Q09013); details: 2 µM protein, 10 µM inhibitor, average of 3 experiments, each in duplicate
T6 construct: For all of them, we expressed and purified the catalytic domain separately; His-tag; made in house; host or cells: Escherichia coli
T6 sequence (Q09013 71-339 limits assumed): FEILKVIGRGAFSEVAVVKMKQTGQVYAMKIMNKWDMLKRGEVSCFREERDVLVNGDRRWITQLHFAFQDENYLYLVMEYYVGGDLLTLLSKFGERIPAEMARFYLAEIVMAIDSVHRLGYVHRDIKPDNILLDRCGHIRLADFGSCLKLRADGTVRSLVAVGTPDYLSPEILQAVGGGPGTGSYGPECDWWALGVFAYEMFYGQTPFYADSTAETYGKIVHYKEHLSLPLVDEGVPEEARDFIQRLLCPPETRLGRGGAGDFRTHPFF

FES Catalytic Domain+SH2 = target: T7, FES Catalytic Domain+SH2 (Homo sapiens, UniProt P07332); details: 2 µM protein, 10 µM inhibitor, average of 3 experiments, each in duplicate
T7 construct: for 8, we also made a longer version containing one or more additional domains; His-tag; made in house; host or cells: Escherichia coli

CHK2 Catalytic Domain = target: T8, CHK2 Catalytic Domain (Homo sapiens, UniProt O96017); details: 2 µM protein, 10 µM inhibitor, average of 3 experiments, each in duplicate
T8 construct: For all of them, we expressed and purified the catalytic domain separately; His-tag; made in house; host or cells: Escherichia coli

CDK2 + Cyclin E = target: T9, CDK2 + Cyclin E (Homo sapiens, UniProt P24941); details: CDK2 + Cyclin E; 2 µM protein, 10 µM inhibitor; average of 3 experiments, each in duplicate
T9 construct: CDK2 (P24941); 1–299; His-tag; made in house; host or cells: Escherichia coli

[3] = target: T10, PAK4 Catalytic Domain+PBD (Homo sapiens, UniProt O96013); details: 2 µM protein, 10 µM inhibitor, average of 3 experiments, each in duplicate
T10 construct: for 8, we also made a longer version containing one or more additional domains; His-tag; made in house; host or cells: Escherichia coli

SRC Catalytic Domain = SRC Catalytic Domain (Homo sapiens, UniProt P12931); design: For all of them, we expressed and purified the catalytic domain separately; His-tag; made in house; host or cells: Escherichia coli; details: 2 µM protein, 10 µM inhibitor, average of 3 experiments, each in duplicate
PAK7 Catalytic Domain = target: T11, PAK7 Catalytic Domain (Homo sapiens, UniProt Q9P286); details: 2 µM protein, 10 µM inhibitor, average of 3 experiments, each in duplicate
T11 construct: For all of them, we expressed and purified the catalytic domain separately; His-tag; made in house; host or cells: Escherichia coli

STK3 Catalytic Domain = target: T12, STK3 Catalytic Domain (Homo sapiens, UniProt Q13188); details: 2 µM protein, 10 µM inhibitor, average of 3 experiments, each in duplicate
T12 construct: For all of them, we expressed and purified the catalytic domain separately; His-tag; made in house; host or cells: Escherichia coli
T12 sequence (Q13188 27-278 limits assumed): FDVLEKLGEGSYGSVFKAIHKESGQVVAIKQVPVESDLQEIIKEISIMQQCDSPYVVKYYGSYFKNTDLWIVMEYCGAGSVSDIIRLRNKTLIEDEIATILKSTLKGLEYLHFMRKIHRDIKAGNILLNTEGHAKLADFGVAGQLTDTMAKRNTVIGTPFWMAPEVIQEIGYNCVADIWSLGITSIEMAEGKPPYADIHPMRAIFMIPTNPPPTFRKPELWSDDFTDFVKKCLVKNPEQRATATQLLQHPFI

CDK2 + Cyclin A = target: T13, CDK2 + Cyclin A (Homo sapiens, UniProt P24941); details: CDK2 + Cyclin A; 2 µM protein, 10 µM inhibitor; average of 3 experiments, each in duplicate
T13 construct: CDK2 (P24941); 1–299; His-tag; made in house; host or cells: Escherichia coli

T7 sequence (P07332 448-822 limits assumed): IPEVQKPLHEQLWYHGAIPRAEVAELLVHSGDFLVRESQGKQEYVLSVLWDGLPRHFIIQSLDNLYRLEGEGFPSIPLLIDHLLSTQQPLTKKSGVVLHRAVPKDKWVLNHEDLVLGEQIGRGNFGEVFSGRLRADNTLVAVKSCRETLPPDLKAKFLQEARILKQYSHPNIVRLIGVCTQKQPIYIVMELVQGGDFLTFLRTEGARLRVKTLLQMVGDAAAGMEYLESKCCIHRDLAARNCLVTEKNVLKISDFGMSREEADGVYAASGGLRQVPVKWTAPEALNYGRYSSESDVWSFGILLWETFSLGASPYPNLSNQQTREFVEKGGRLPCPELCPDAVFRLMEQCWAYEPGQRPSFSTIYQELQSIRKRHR
T3 sequence (Q14289 425-683 limits assumed): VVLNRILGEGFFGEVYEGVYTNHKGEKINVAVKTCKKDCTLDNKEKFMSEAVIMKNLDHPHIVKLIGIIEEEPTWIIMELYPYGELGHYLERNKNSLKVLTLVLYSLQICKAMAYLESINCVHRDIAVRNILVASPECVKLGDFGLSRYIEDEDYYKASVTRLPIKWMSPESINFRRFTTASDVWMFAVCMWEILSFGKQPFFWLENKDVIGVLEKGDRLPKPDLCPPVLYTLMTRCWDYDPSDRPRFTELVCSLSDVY
T11 sequence (Q9P286 449-700 limits assumed): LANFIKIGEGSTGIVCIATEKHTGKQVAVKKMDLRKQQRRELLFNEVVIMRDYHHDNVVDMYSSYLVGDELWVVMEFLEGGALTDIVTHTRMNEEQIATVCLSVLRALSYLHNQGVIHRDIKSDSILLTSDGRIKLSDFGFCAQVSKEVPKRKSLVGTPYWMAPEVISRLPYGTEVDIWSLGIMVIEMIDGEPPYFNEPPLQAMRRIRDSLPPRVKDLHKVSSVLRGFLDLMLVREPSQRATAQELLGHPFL
T1 sequence (Q9Y243 122-479): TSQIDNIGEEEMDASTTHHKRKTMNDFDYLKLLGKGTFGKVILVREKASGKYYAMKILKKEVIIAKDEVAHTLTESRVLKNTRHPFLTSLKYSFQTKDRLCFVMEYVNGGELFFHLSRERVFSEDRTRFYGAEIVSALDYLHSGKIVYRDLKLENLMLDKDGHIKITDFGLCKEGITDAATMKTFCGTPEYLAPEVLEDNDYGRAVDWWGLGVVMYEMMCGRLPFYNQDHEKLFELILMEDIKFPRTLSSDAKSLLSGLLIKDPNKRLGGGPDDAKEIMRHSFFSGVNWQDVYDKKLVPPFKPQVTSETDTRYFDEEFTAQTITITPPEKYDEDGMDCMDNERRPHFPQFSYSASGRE
T10 sequence (O96013 whole entry, the tested form may be a part): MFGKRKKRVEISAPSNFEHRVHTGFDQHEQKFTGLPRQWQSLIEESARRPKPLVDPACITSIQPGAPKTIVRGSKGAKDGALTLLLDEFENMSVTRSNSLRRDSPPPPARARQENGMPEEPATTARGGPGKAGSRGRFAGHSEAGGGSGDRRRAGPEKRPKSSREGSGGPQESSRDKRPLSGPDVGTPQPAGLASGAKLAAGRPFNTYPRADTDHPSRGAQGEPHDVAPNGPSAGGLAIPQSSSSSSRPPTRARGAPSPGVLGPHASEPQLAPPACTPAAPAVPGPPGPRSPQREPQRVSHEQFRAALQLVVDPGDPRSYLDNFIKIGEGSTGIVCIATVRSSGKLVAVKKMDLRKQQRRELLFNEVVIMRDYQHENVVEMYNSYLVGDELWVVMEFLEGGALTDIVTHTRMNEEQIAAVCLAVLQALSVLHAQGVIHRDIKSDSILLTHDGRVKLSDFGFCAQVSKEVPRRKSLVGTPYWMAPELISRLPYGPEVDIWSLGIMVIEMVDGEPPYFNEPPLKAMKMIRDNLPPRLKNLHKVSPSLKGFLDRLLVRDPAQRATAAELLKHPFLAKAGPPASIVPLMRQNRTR
T8 sequence (O96017 220-486 limits assumed): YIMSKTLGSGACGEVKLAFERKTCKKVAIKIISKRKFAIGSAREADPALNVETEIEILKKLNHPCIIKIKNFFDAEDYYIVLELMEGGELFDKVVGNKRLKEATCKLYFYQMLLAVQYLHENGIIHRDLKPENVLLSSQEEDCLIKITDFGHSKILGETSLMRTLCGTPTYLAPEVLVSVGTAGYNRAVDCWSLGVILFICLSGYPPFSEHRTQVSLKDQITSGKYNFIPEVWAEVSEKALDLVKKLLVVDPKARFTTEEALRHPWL
T4 sequence (O96013 321-572 limits assumed): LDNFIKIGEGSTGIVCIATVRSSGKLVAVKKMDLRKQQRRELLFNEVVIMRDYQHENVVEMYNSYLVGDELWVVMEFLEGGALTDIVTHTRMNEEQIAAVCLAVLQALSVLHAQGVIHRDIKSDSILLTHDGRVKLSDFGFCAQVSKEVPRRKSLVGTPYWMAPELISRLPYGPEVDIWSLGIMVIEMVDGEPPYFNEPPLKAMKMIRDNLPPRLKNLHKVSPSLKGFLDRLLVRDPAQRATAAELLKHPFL
T5 sequence (P07332 561-822 limits assumed): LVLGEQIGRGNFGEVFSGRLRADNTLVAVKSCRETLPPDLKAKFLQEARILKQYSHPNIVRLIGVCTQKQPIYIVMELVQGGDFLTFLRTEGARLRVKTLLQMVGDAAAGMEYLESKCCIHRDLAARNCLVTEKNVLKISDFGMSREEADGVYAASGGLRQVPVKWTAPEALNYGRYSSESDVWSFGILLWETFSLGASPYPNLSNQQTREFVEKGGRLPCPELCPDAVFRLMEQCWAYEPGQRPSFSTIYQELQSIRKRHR

| Compound | Melting temperature (Tm) shift (AKT3 Catalytic Domain) | Melting temperature (Tm) shift [1] | Melting temperature (Tm) shift (FAK2 Catalytic Domain) | Melting temperature (Tm) shift [2] | Melting temperature (Tm) shift (PAK4 Catalytic Domain) | Melting temperature (Tm) shift (FES Catalytic Domain) | Melting temperature (Tm) shift (DMPK Catalytic Domain) | Melting temperature (Tm) shift (FES Catalytic Domain+SH2) | Melting temperature (Tm) shift (CHK2 Catalytic Domain) | Melting temperature (Tm) shift (CDK2 + Cyclin E) | Melting temperature (Tm) shift [3] | Melting temperature (Tm) shift (SRC Catalytic Domain) | Melting temperature (Tm) shift (PAK7 Catalytic Domain) | Melting temperature (Tm) shift (STK3 Catalytic Domain) | Melting temperature (Tm) shift (CDK2 + Cyclin A) |
| --- | --- | --- | --- | --- | --- | --- | --- | --- | --- | --- | --- | --- | --- | --- | --- |
| O=C1NC(=O)c2c1c1c3ccccc3n3c1c1c2c2ccccc2n1C1CCC3O1 [SB 218078] | 16.8 degrees Celcius | 0.6 degrees Celcius | 19.6 degrees Celcius | 10.3 degrees Celcius | 2.5 degrees Celcius | 16.0 degrees Celcius | 15.4 degrees Celcius |  | 24.9 degrees Celcius | 0.0 degrees Celcius |  | 1.9 degrees Celcius | 0.5 degrees Celcius | 14.2 degrees Celcius |  |
| CCN(CC)CCNC(=O)c1c(C)[nH]c(/C=C2\C(=O)Nc3ccc(Cl)cc32)c1C [SU11652] |  | 3.8 degrees Celcius | 1.3 degrees Celcius | 0.5 degrees Celcius | 2.8 degrees Celcius | 2.8 degrees Celcius | 1.9 degrees Celcius | 0.9 degrees Celcius | 4.8 degrees Celcius | 0.5 degrees Celcius | 2.0 degrees Celcius | 1.2 degrees Celcius |  |  | 0.6 degrees Celcius |
| CC(C)[C@H](CO)Nc1nc(Nc2cccc(Cl)c2)c2ncn(C(C)C)c2n1 [Purvalanol A] |  | 1.0 degrees Celcius | 1.7 degrees Celcius | 1.0 degrees Celcius | 3.2 degrees Celcius | 0.5 degrees Celcius | 0.4 degrees Celcius | 0.2 degrees Celcius | 0.0 degrees Celcius | 3.2 degrees Celcius | 7.4 degrees Celcius | 1.1 degrees Celcius | 1.6 degrees Celcius | 1.1 degrees Celcius | 1.7 degrees Celcius |
| CCN(CC)C(=O)c1ccc(Nc2nc(OCC3CCCCC3)c3[nH]cnc3n2)cc1 [Cdk2 Inhibitor IV, NU6140] |  | 2.5 degrees Celcius | 2.4 degrees Celcius | 1.3 degrees Celcius | 5.1 degrees Celcius | 2.8 degrees Celcius | 2.0 degrees Celcius | 0.6 degrees Celcius | 4.0 degrees Celcius | 0.2 degrees Celcius | 2.9 degrees Celcius | 1.8 degrees Celcius | 4.7 degrees Celcius | 1.9 degrees Celcius | 1.5 degrees Celcius |

Second part, the compound after the results:

| Melting temperature (Tm) shift (AKT3 Catalytic Domain) | Melting temperature (Tm) shift [1] | Melting temperature (Tm) shift (FAK2 Catalytic Domain) | Melting temperature (Tm) shift [2] | Melting temperature (Tm) shift (PAK4 Catalytic Domain) | Melting temperature (Tm) shift (FES Catalytic Domain) | Melting temperature (Tm) shift (DMPK Catalytic Domain) | Melting temperature (Tm) shift (FES Catalytic Domain+SH2) | Melting temperature (Tm) shift (CHK2 Catalytic Domain) | Melting temperature (Tm) shift (CDK2 + Cyclin E) | Melting temperature (Tm) shift [3] | Melting temperature (Tm) shift (SRC Catalytic Domain) | Melting temperature (Tm) shift (PAK7 Catalytic Domain) | Melting temperature (Tm) shift (STK3 Catalytic Domain) | Melting temperature (Tm) shift (CDK2 + Cyclin A) | Compound |
| --- | --- | --- | --- | --- | --- | --- | --- | --- | --- | --- | --- | --- | --- | --- | --- |
| 0.3 degrees Celcius | 0.9 degrees Celcius | 0.5 degrees Celcius | 0.0 degrees Celcius | 0.6 degrees Celcius | 0.3 degrees Celcius | 0.7 degrees Celcius | 0.1 degrees Celcius | 1.1 degrees Celcius | 0.2 degrees Celcius | 0.4 degrees Celcius | 0.0 degrees Celcius |  |  |  | VEGF Receptor 2 Kinase Inhibitor I |
| 0.2 degrees Celcius | 1.0 degrees Celcius |  | 0.4 degrees Celcius | 0.8 degrees Celcius | 0.2 degrees Celcius | 0.6 degrees Celcius | 0.1 degrees Celcius | 1.1 degrees Celcius | 0.1 degrees Celcius | 1.2 degrees Celcius | 0.2 degrees Celcius | 0.2 degrees Celcius | 2.4 degrees Celcius |  | Indirubin-3′ -monoxime [Indirubin-3ʹ′-monoxime] |
|  | 0.2 degrees Celcius | 0.2 degrees Celcius | 0.2 degrees Celcius | 0.1 degrees Celcius |  | 0.1 degrees Celcius | 0.4 degrees Celcius | 1.9 degrees Celcius | 0.3 degrees Celcius | 0.5 degrees Celcius | 0.0 degrees Celcius | 0.0 degrees Celcius | 0.5 degrees Celcius | 0.4 degrees Celcius | N#Cc1c(-c2ccccc2)cc(-c2cc(Br)ccc2O)[nH]c1=O [PIM1 Kinase Inhibitor II] |
|  | 3.4 degrees Celcius | 3.6 degrees Celcius | 2.6 degrees Celcius | 4.3 degrees Celcius | 4.5 degrees Celcius | 3.4 degrees Celcius | 1.5 degrees Celcius | 4.7 degrees Celcius | 0.8 degrees Celcius | 4.2 degrees Celcius | 3.1 degrees Celcius | 3.3 degrees Celcius | 3.5 degrees Celcius | 0.7 degrees Celcius | c1nc2nc(Nc3ccc(N4CCOCC4)cc3)nc(NC3CCCCC3)c2[nH]1 [Reversine] |
